Experimental data published in ChEMBL document CHEMBL5465560, “Selectivity Literature for EUbOPEN Chemogenomic Library” (2024).

Legend:
[1] = biological target: Atypical kinase COQ8A, mitochondrial (Homo sapiens, UniProt Q8NI60); test: Selectivity interaction (KinomeScan (DiscoverX)) EUB0001049a ADCK3; conditions: at 1 µM
[2] = biological target: Casein kinase II subunit alpha' (Homo sapiens) (UniProt P19784); test: Selectivity interaction (KinomeScan (DiscoverX)) EUB0000666a CSNK2A2; conditions: at 10 µM
[3] = biological target: Phosphatidylinositol 4,5-bisphosphate 3-kinase catalytic subunit gamma isoform (Homo sapiens) (UniProt P48736); test: Selectivity interaction (Kinase panel (KiNativ target engagement assay in Jurkat cells)) EUB0001635a PIK3CG; assay type: cell-based; conditions: at 1 µM
[4] = biological target: Beta-1 adrenergic receptor (Homo sapiens, UniProt P08588); test: Selectivity interaction (Beta 1 adrenergic receptor assay, human recombinant ) EUB0000877a ADRB1
[5] = biological target: MAP kinase-interacting serine/threonine-protein kinase 2 (Homo sapiens, UniProt Q9HBH9); test: Selectivity interaction (Kinase panel (Invitrogen)) EUB0000639a MKNK2; conditions: at 200 nM
[6] = biological target: Serine/threonine-protein kinase 10 (Homo sapiens) (UniProt O94804); test: Selectivity interaction (ActivX KiNativ screen (kinase selectivity in THP-1 cell lysates)) EUB0000639a STK10; assay type: subcellular; conditions: lysate, at 0.2 µM
[7] = system: Phosphatidylinositol 4,5-bisphosphate 3-kinase catalytic subunit alpha isoform (Homo sapiens), P42336 [H1047Y]; conditions: at 10 µM
[8] = biological target: Tyrosine-protein kinase ABL1 (Homo sapiens, UniProt P00519); conditions: at 10 µM
[9] = biological target: T1, Serine/threonine-protein kinase 17B (Homo sapiens) (UniProt O94768); test: Selectivity interaction (KinomeScan (DiscoverX)) EUB0001619a STK17B; conditions: at 1 µM
T1 sequence (whole entry): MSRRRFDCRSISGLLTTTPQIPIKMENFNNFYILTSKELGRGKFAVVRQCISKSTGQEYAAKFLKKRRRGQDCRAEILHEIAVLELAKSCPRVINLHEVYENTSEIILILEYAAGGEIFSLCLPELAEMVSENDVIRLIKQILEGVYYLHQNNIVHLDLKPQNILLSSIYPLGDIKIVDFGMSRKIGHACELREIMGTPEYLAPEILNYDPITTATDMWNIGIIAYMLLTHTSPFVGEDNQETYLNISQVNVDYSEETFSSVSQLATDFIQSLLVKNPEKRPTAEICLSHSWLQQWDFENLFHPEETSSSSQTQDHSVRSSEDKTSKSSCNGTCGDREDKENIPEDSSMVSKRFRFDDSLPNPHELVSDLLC

[10] = biological target: Casein kinase II subunit alpha (Homo sapiens, UniProt P68400); test: Selectivity interaction (KinomeScan (DiscoverX)) EUB0000655a CSNK2A1; conditions: at 10 µM
[11] = biological target: T2, Mitogen-activated protein kinase kinase kinase 19 (Homo sapiens) (UniProt Q56UN5); test: Selectivity interaction (KinomeScan (DiscoverX)) EUB0000695a MAP3K19; conditions: at 100 nM
T2 sequence (whole entry): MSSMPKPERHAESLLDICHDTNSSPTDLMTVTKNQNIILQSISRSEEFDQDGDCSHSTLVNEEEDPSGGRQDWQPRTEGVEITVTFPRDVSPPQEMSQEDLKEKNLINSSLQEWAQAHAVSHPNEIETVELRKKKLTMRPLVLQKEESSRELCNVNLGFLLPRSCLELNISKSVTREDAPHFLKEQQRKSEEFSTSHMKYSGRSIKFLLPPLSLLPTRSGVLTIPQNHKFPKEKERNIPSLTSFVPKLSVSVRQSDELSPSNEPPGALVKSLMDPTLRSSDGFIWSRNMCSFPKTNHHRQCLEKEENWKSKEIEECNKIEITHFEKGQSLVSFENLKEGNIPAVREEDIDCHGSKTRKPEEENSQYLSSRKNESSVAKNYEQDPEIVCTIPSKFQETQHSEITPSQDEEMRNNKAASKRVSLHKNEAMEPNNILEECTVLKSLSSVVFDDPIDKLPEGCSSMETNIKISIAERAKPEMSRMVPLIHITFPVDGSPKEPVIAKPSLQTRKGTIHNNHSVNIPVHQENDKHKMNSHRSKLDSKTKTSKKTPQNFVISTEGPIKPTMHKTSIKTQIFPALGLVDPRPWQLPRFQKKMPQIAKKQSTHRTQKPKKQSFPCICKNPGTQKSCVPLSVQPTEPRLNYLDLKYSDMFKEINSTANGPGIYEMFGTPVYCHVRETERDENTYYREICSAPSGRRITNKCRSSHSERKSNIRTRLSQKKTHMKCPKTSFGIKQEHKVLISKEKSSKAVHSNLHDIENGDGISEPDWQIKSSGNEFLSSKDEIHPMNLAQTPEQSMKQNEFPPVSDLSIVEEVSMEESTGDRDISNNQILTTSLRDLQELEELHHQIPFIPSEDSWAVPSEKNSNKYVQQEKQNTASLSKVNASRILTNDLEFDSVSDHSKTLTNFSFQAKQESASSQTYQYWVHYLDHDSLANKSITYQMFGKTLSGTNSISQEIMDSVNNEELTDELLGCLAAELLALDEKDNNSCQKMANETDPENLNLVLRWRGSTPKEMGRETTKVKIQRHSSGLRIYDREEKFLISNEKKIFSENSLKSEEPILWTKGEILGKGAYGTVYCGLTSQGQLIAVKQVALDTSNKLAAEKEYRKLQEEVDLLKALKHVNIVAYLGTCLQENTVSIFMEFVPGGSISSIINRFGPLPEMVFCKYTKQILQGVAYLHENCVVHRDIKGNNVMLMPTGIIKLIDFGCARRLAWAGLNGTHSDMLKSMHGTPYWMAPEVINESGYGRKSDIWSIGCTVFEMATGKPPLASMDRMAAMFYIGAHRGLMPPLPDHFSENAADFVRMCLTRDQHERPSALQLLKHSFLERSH

[12] = biological target: Protein-tyrosine kinase 6 (Homo sapiens, UniProt Q13882); test: Selectivity interaction (SelectScreen profiling (Invitrogen)) EUB0000607a PTK6; conditions: at 2 µM
[13] = biological target: Protein arginine N-methyltransferase 3 (Homo sapiens, UniProt O60678); test: Selectivity interaction (Methyltransferase screen (radiometric assays, panel of 8 PRMTs, 21 protein lysine methyltransferases, 3 DNA methyltransferases, and one RNA methyltransferase)) EUB0000271b PRMT3
Sequence of Protein arginine N-methyltransferase 3 (O60678 2-531 limits assumed): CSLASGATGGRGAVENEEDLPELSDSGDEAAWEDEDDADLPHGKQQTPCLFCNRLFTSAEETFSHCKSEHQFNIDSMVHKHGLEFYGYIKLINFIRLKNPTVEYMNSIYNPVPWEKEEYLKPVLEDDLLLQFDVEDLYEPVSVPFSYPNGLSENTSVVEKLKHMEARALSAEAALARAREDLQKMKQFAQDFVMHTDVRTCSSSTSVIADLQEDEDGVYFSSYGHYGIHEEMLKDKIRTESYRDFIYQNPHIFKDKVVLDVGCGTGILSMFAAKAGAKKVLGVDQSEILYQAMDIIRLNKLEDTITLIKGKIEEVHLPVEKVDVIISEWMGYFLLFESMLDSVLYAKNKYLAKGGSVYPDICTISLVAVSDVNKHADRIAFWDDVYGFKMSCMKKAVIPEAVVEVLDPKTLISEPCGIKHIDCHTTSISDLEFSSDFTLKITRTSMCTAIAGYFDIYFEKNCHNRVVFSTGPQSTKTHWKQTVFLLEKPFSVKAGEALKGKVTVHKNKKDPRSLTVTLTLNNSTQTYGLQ

Sequence of Serine/threonine-protein kinase 10 (Homo sapiens) (O94804 whole entry, looked up, canonical isoform): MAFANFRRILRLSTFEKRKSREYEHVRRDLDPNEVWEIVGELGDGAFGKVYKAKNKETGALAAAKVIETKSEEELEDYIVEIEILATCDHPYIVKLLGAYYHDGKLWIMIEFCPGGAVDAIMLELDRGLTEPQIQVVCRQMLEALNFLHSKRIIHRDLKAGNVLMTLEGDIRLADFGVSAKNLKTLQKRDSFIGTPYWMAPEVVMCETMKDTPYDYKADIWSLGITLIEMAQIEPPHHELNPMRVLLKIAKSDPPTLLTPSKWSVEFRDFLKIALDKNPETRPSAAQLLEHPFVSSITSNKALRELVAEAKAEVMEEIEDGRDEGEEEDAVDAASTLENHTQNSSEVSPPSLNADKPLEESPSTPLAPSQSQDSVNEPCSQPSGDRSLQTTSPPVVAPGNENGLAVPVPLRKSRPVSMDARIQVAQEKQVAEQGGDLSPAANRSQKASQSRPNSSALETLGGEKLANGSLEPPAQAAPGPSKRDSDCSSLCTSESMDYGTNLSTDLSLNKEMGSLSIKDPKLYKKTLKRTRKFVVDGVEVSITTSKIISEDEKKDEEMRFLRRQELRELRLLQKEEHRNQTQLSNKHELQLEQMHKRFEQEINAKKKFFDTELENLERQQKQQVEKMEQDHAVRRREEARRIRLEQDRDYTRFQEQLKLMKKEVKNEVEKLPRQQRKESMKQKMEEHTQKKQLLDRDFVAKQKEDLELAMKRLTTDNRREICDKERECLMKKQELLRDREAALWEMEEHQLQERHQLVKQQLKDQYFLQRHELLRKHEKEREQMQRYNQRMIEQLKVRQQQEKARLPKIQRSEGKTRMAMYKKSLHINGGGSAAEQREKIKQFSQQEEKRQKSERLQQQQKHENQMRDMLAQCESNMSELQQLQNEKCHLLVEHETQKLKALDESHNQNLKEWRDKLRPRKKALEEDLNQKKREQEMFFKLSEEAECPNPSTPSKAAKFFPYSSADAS
Sequence of Beta-1 adrenergic receptor (P08588 whole entry): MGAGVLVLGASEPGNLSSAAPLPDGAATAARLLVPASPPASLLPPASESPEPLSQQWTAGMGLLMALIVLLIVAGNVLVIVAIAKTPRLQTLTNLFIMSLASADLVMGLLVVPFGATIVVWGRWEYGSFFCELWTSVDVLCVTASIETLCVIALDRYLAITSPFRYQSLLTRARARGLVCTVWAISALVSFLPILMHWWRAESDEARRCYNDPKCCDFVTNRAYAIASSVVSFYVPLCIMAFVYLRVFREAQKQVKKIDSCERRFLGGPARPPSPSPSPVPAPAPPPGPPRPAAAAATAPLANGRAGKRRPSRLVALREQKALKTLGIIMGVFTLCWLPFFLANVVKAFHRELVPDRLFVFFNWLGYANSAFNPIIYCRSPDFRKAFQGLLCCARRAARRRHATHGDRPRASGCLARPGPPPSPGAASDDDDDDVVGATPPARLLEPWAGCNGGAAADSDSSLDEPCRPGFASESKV
Sequence of Phosphatidylinositol 4,5-bisphosphate 3-kinase catalytic subunit gamma isoform (Homo sapiens) (P48736 whole entry, looked up, canonical isoform): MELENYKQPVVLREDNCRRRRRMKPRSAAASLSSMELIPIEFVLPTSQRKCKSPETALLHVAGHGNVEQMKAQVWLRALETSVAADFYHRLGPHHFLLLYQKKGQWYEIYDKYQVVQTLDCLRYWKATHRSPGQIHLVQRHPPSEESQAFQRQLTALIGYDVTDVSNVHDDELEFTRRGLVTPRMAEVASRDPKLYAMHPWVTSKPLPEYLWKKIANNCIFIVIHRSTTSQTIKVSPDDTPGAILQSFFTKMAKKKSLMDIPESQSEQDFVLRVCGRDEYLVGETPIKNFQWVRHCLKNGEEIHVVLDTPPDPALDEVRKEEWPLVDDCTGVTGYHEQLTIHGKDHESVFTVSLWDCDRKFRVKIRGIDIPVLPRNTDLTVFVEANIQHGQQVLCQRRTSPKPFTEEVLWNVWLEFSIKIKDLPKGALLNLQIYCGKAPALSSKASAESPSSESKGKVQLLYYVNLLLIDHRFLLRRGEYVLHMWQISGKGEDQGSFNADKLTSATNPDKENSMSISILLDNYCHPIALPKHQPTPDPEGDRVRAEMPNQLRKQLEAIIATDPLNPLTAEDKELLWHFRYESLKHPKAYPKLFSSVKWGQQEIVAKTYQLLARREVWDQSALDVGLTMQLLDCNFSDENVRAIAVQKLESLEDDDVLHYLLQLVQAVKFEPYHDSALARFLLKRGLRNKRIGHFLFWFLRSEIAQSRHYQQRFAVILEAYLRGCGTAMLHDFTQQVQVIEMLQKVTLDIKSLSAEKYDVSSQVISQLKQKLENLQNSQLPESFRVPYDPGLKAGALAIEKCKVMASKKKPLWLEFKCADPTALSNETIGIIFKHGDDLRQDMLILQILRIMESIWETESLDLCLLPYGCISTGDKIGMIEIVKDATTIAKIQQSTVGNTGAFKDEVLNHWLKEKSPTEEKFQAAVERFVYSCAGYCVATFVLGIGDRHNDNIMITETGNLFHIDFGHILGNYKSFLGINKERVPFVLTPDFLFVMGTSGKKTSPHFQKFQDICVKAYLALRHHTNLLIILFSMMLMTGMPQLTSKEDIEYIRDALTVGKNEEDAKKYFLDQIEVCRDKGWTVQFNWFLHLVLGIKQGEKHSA
Sequence of Atypical kinase COQ8A, mitochondrial (Q8NI60 163-647 limits assumed): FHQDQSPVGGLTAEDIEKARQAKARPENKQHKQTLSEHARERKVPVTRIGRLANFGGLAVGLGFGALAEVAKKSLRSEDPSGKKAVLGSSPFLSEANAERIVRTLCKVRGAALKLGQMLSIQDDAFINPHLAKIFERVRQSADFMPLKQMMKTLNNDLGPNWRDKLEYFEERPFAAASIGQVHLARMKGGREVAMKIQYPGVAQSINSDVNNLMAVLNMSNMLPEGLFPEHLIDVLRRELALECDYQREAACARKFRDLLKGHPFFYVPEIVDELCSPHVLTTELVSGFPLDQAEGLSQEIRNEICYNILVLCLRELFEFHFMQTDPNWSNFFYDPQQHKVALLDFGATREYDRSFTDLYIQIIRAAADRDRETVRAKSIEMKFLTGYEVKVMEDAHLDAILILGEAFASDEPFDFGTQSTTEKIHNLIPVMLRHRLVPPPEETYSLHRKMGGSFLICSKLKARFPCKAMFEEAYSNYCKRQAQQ
Sequence of Protein-tyrosine kinase 6 (Q13882 whole entry, looked up): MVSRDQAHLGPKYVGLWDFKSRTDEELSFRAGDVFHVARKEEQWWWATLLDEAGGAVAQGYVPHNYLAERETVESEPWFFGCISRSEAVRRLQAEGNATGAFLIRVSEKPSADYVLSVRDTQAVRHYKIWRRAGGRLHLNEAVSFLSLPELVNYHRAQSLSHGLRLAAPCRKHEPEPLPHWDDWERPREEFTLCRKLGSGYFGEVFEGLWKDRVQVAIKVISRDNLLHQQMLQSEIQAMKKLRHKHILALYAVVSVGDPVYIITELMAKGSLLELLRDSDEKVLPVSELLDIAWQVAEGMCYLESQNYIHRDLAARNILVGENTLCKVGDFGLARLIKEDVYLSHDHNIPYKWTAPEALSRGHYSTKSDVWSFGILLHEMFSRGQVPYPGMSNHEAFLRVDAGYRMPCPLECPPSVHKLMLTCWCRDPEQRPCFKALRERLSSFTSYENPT
Sequence of Casein kinase II subunit alpha (P68400 whole entry, looked up): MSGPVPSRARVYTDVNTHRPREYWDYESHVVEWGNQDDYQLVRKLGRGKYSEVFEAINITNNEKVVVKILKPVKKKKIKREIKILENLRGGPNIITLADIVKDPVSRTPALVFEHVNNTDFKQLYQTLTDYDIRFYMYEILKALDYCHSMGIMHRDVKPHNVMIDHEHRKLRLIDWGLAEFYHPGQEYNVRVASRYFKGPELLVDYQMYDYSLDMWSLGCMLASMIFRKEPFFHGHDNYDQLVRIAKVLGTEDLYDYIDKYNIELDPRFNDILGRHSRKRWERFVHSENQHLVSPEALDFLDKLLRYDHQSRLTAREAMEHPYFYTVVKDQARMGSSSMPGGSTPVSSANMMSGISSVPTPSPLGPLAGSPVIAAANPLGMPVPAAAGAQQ
Sequence of MAP kinase-interacting serine/threonine-protein kinase 2 (Q9HBH9 whole entry, looked up): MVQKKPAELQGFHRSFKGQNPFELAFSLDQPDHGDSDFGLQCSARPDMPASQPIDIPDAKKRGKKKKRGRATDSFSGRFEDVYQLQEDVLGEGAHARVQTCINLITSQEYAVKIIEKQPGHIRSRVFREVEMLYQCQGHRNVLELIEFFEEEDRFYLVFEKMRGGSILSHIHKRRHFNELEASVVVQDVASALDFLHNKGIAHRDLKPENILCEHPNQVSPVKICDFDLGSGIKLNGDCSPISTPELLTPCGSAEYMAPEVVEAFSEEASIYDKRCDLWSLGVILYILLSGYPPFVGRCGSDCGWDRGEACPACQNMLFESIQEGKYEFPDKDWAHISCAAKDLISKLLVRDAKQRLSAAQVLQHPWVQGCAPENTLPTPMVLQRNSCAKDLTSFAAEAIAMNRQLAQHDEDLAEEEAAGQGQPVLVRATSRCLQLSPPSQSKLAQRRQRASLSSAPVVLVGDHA

For `COc1cc(Nc2nc(C)cc(-c3cnn4nc(OC)ccc34)n2)cc(C(F)(F)F)c1`, the % of control [1] was 91%.

In the case of `O=C(NOC[C@H](O)CO)c1ccc(F)c(F)c1Nc1ccc(I)cc1F`, the % of control [2] is reported as 100%.

In the case of `C=CC(=O)Nc1ccc(C(=O)Nc2[nH]nc3c2CN(C(=O)N[C@H](CN(C)C)c2ccccc2)C3(C)C)cc1`, the % of engagement [3] is reported as -3.7%.

`CCC(=O)N1CC[C@H](Nc2ncnc3c2CN(c2cnc(OC)c(C(F)(F)F)c2)CC3)C1` [LENIOLISIB] was tested, and the IC50 [4] was > 30 µM.

With `CC[C@@H]1[C@H](F)C(=O)N[C@@H]1COc1nccc2cc(C(N)=O)c(OC)cc12` [ZIMLOVISERTIB] the % of inhibition [5] was 86% and the % of inhibition [6] was -8.1%.

`COCC(=O)NC/C=C/c1ccc2ncnc(Nc3ccc(Oc4ccc(C)nc4)c(C)c3)c2c1` [CP-724714] showed a % of control [7] of 47%.

Work on `Cc1cc([C@@H](C)Nc2ccccc2C(=O)O)c2nc(N3CCOCC3)cc(=O)n2c1` [AZD-6482] yielded a % of control [8] of 88%.

For `N#Cc1cccc(-c2c[nH]c3ncnc(N4CCOCC4)c23)c1`, the % of control [9] was 100%.

`CN(C)CCOc1ccc(-c2nc(-c3ccncc3)c(-c3ccc4c(c3)CC/C4=N\O)[nH]2)cc1` was tested, and the % of control [10] was 79%.

With `Cc1cc(F)c(C(=O)Nc2cccc(-c3nncn3C(C)C)n2)cc1-n1cnc(C2CC2)c1` the % of control [11] was 57%.

Compound `CNC(=O)Nc1ccc(-c2nc(N3CC4CCC(C3)O4)c3cnn(C4CCC5(CC4)OCCO5)c3n2)cc1` has a % of inhibition [12] of 8%.

Compound `Cc1cc(C)cc([C@@H]2c3cc(C)ccc3NC(=O)CN2C(=O)c2ccc(Br)s2)c1` has a % of activity ([13]; at 1 µM) of 100% and a % of activity ([13]; at 10 µM) of 98%.
